Experimental data from patent publication US8007767B2, “Amino methyl imidazoles and related compounds as C5a receptor modulators” (Novartis International Pharmaceutical Ltd., priority 2002, dated 2011).

target: T1, human C5a receptor (Homo sapiens, UniProt P21730); experiment: standard assay of C5a receptor mediated calcium mobilization (Example 20); assay type: cell-based; settings: differentiated U937 cells, read-out: Ki < 1 μM
T1 construct: endogenous in cells; host or cells: U937 cells differentiated with 1 mM dibutyryl cAMP
T1 sequence (P21730 1-350): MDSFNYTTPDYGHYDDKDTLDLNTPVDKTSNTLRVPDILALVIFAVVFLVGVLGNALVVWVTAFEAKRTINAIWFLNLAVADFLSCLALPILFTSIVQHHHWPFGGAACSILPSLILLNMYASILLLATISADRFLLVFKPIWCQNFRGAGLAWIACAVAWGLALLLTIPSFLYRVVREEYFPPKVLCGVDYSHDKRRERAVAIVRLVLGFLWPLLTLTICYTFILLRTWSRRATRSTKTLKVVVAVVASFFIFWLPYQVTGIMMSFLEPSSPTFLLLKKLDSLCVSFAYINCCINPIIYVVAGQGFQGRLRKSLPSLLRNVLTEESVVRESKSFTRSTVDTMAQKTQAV
Description: U937 cells are grown in differentiation media (1 mM dibutyrl cAMP in RPMI 1640 medium containing 10% fetal bovine serum) for 48 hours at 37° C. then reseeded onto 96-well plates suitable for use in a FLIPR™ Plate Reader (Molecular Devices Corp., Sunnyvale Calif.). Cells are grown an additional 24 hours (to 70-90% confluence) before the assay. The cells are then washed once with Krebs Ringer solution. FLUO-3 calcium sensitive dye (Molecular Probes, Inc. Eugene, Oreg.) is added to 10 μg/mL and incubated with the cells at room temperature for 1 to 2 hours. The 96 well plates are then washed to remove excess dye.
C. Assays for the Identification of Receptor Modulatory Agents: Antagonists and Agonists
Those of skill in the art will recognize that the calcium mobilization assay described above may be readily adapted for identifying test compounds as having agonist or antagonist activity, at the human C5a receptor.
For example, in order to identify antagonist compounds, differentiated U937 cells are washed and incubated with Fluo-3 dye as described above. One hour prior to measuring the fluorescence signal, a subset of the cells is incubated with a 1 uM concentration of at least one compound to be tested. The fluorescence response upon the subsequent addition of 0.3 nM (final concentration) human recombinant C5a is monitored using the FLIPR™ plate reader. Antagonist compounds elicit at least a 2-fold decrease in the fluorescence response relative to that measured in the presence of human C5a alone. Preferred antagonist compounds elicit at least a 5-fold, preferably at least a 10-fold, and more preferably at least a 20-fold decrease in the fluorescence response relative to that measured in the presence of human C5a alone.

Ki, < 1000 nM:
CCCCN(Cc1ccc2[nH]ccc2c1)Cc1c(Cl)nc(N2CCOCC2)n1CCCC [Compound 16, N-[(1-butyl-4-chloro-2-morpholin-4-yl-1H-imidazol-5-yl)methyl]-N-(1H-indol-5-ylmethyl)butan-1-amine]
CCCCn1c(CN(Cc2ccccc2)Cc2ccc3c(c2)OCCO3)cnc1C1CCCCC1 [Compound 10, Benzyl-(1-butyl-2-cyclohexyl-3H-imidazol-5-ylmethyl)-(2,3-dihydro-benzo[1,4]dioxin-6-ylmethyl)-amine]
CCCCN(Cc1c(Cl)nc(N2CCOCC2)n1CCCC)C(C)c1ccc2c(c1)OCCO2 (centres unmarked) [Compound 19, N-[(1-butyl-4-chloro-2-morpholin-4-yl-1H-imidazol-5-yl)methyl]-N-[1-(2,3-dihydro-1,4-benzodioxin-6-yl)ethyl]butan-1-amine]
CCCCn1c(N2CCOCC2)nc(Cl)c1CN(CCC(C)C)C(C)c1ccc2c(c1)OCCO2 (centres unmarked) [Compound 20, N-{(1-butyl-4-chloro-2-morpholin-4-yl-1H-imidazol-5-yl)methyl]-N-[1-(2,3-dihydro-1,4-benzodioxin-6-yl)ethyl]-3-methylbutan-1-amine]
CCCCn1c(C2CC=CCC2)nc(-c2ccccc2)c1CN(Cc1ccc2c(c1)OCO2)Cc1ccc2c(c1)OCO2 (centres unmarked) [Compound 13, 1-(1,3-benzodioxol-5-yl)-N-(1,3-benzodioxol-5-ylmethyl)-N-[(1-butyl-2-cyclohex-3-enyl-4-phenyl-1H-imidazol-5-yl)methyl]methanamine]
CCCCN(Cc1ccc2c(c1)OCCO2)Cc1c(Cl)nc(N2CCOCC2)n1CCCC [Compound 17, N-[(1-butyl-4-chloro-2-morpholin-4-yl-1H-imidazol-5-yl)methyl]-N-(2,3-dihydro-1,4-benzodioxin-6-ylmethyl)butan-1-amine]
CCCCn1c(N2CCOCC2)nc(Cl)c1CN(Cc1ccc(C(=O)O)cc1)Cc1ccc2c(c1)OCCO2 [Compound 15, 4-{[[(1-butyl-4-chloro-2-morpholin-4-yl-1H-imidazol-5-yl)methyl](2,3-dihydro-1,4-benzodioxin-6-ylmethyl)amino]methyl}benzoic acid]
CCCCn1c(N2CCCCC2)nc(Cl)c1CN(Cc1cccc(OCC)c1)Cc1ccc2c(c1)OCCO2 [Compound 21, 1-(1-butyl-4-chloro-2-piperidin-1-yl-1H-imidazol-5-yl)-N-(2,3-dihydro-1,4-benzodioxin-6-ylmethyl)-N-(3-ethoxybenzyl)methanamine]
CCCCn1c(N2CCOCC2)nc(Cl)c1CN(CCC(C)C)Cc1ccc2c(c1)OCCO2 [Compound 18, N-[(1-butyl-4-chloro-2-morpholin-4-yl-1H-imidazol-5-yl)methyl]-N-(2,3-dihydro-1,4-benzodioxin-6-ylmethyl)-3-methylbutan-1-amine]
CCCCn1c(CN(Cc2ccccc2)Cc2ccc3c(c2)OCO3)cnc1C1CCCCC1 [Compound 9, Benzo[1,3]dioxol-5-ylmethyl-benzyl(1-butyl-2-cyclohexyl-3H-imidazol-5-ylmethyl)-amine]
CCCCn1c(C2CC2)nc(-c2ccccc2)c1CN(Cc1ccc2c(c1)OCO2)Cc1ccc2c(c1)OCO2 [Compound 11, 1-(1,3-benzodioxol-5-yl)-N-(1,3-benzodioxol-5-ylmethyl)-N-[(1-butyl-2-cycloproyl-4-phenyl-1H-imidazol-5yl)methyl]methanamine]
CCCCn1c(C2=CCCCC2)nc(-c2ccccc2)c1CN(Cc1ccc2c(c1)OCO2)Cc1ccc2c(c1)OCO2 [Compound 12, 1-(1,3-benzodioxol-5-yl)-N-(1,3-benzodioxol-5-ylmethyl)-N-[(1-butyl-2-cyclohex-1-en-1-yl-4-phenyl-1H-imidazol-5-yl)methyl]methanamine]
CCCCn1c(N2CCOCC2)nc(Cl)c1CN(Cc1ccc(C(=O)OC)cc1)Cc1ccc2c(c1)OCCO2 [Compound 14, methyl 4-{[[(1-butyl-4-chloro-2-morpholin-4-yl-1H-imidazol-5-yl)methyl](2,3-dihydro-1,4-benzodioxin-6-ylmethyl)amino]methyl}benzoate]
CCCCn1c(N2CCOCC2)nc(Cl)c1CN(CCC(C)C)Cc1ccc2c(c1)CCCN2 [Compound 22]
